# Tests used:
# Experiment in all cases: relative viability (nuclei count vs DMSO), 5 days (fraction); higher = more cells survive
# A549 = system: A549
# How it was run: (§1)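 Values are medians from duplicate plates. Each reflects relative viability, defined as the nuclei count of treated wells over that of vehicle wells. Lung cancer cell lines in 1536-well plates were pin-tool dosed one day after seeding with one drug alone or with a fixed anchor-drug dose plus five library-drug doses (not always all listed) in √10 steps, then fixed, stained and imaged at 4× after 5 days.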
# NCI-H1703 = system: NCI-H1703
# How it was run: as §1
# HCC-44 = system: HCC-44
# How it was run: as §1
# Calu-6 = system: Calu-6
# How it was run: as §1
# HCC-78 = system: HCC-78
# How it was run: as §1
# NCI-H1563 = system: NCI-H1563
# How it was run: as §1
# IA-LM = system: IA-LM
# How it was run: as §1
# NCI-H2087 = system: NCI-H2087
# How it was run: as §1
# NCI-H1299 = system: NCI-H1299
# How it was run: as §1
# EBC-1 = system: EBC-1
# How it was run: as §1
# NCI-H322M = system: NCI-H322M
# How it was run: as §1
structure (smiles),measurement,setting,value
Cc1csc(=NC2CCCCC2)n1/N=C/c1ccc(O)c(O)c1O [MIM1] + C[C@]1(O)C[C@@H](c2nc(-c3ccc4ccc(-c5ccccc5)nc4c3)c3c(N)nccn32)C1 [Linsitinib] (partner 1 µM),relative viability,A549; first compound 0.2 µM,0.564
same,relative viability,A549; first compound 0.6325 µM,0.638
same,relative viability,A549; first compound 2 µM,0.618
same,relative viability,A549; first compound 6.325 µM,0.504
same,relative viability,A549; first compound 20 µM,0.515
same,relative viability,NCI-H1703; first compound 0.2 µM,0.759
same,relative viability,NCI-H1703; first compound 0.6325 µM,1.31
same,relative viability,NCI-H1703; first compound 2 µM,0.701
same,relative viability,NCI-H1703; first compound 6.325 µM,0.144
same,relative viability,NCI-H1703; first compound 20 µM,0.095
same,relative viability,HCC-44; first compound 0.2 µM,0.67
same,relative viability,HCC-44; first compound 0.6325 µM,0.713
same,relative viability,HCC-44; first compound 2 µM,0.555
same,relative viability,HCC-44; first compound 6.325 µM,0.555
same,relative viability,HCC-44; first compound 20 µM,0.141
same,relative viability,Calu-6; first compound 0.6325 µM,0.918
same,relative viability,Calu-6; first compound 2 µM,0.897
same,relative viability,Calu-6; first compound 6.325 µM,0.561
same,relative viability,Calu-6; first compound 20 µM,0.286
same,relative viability,HCC-78; first compound 0.2 µM,0.551
same,relative viability,HCC-78; first compound 0.6325 µM,0.594
same,relative viability,HCC-78; first compound 2 µM,0.488
same,relative viability,HCC-78; first compound 6.325 µM,0.439
same,relative viability,HCC-78; first compound 20 µM,0.541
same,relative viability,NCI-H1563; first compound 0.2 µM,1.13
same,relative viability,NCI-H1563; first compound 0.6325 µM,1.29
same,relative viability,NCI-H1563; first compound 2 µM,1.1
same,relative viability,NCI-H1563; first compound 6.325 µM,0.977
same,relative viability,NCI-H1563; first compound 20 µM,0.957
same,relative viability,IA-LM; first compound 0.2 µM,0.563
same,relative viability,IA-LM; first compound 0.6325 µM,0.36
same,relative viability,IA-LM; first compound 2 µM,0.502
same,relative viability,IA-LM; first compound 6.325 µM,0.0829
same,relative viability,IA-LM; first compound 20 µM,0.105
same,relative viability,NCI-H2087; first compound 0.2 µM,0.935
same,relative viability,NCI-H2087; first compound 0.6325 µM,0.833
same,relative viability,NCI-H2087; first compound 2 µM,0.989
same,relative viability,NCI-H2087; first compound 6.325 µM,0.693
same,relative viability,NCI-H2087; first compound 20 µM,0.428
same,relative viability,NCI-H1299; first compound 0.2 µM,0.98
same,relative viability,NCI-H1299; first compound 0.6325 µM,0.93
same,relative viability,NCI-H1299; first compound 2 µM,0.963
same,relative viability,NCI-H1299; first compound 6.325 µM,0.919
same,relative viability,NCI-H1299; first compound 20 µM,0.667
same,relative viability,EBC-1; first compound 0.2 µM,0.921
same,relative viability,EBC-1; first compound 0.6325 µM,0.829
same,relative viability,EBC-1; first compound 2 µM,0.871
same,relative viability,EBC-1; first compound 6.325 µM,0.605
same,relative viability,EBC-1; first compound 20 µM,0.318
same,relative viability,NCI-H322M; first compound 0.2 µM,1.01
same,relative viability,NCI-H322M; first compound 0.6325 µM,0.981
same,relative viability,NCI-H322M; first compound 2 µM,1.05
same,relative viability,NCI-H322M; first compound 6.325 µM,0.905
same,relative viability,NCI-H322M; first compound 20 µM,0.912
Cc1csc(=NC2CCCCC2)n1/N=C/c1ccc(O)c(O)c1O [MIM1] + Cc1nc(NC(=O)N2CCC[C@H]2C(N)=O)sc1-c1ccnc(C(C)(C)C(F)(F)F)c1 [Alpelisib] (partner 2 µM),relative viability,A549; first compound 0.2 µM,0.69
same,relative viability,A549; first compound 0.6325 µM,0.879
same,relative viability,A549; first compound 2 µM,0.79
same,relative viability,A549; first compound 6.325 µM,0.56
same,relative viability,A549; first compound 20 µM,0.102
same,relative viability,NCI-H1703; first compound 0.2 µM,0.329
same,relative viability,NCI-H1703; first compound 0.6325 µM,0.34
same,relative viability,NCI-H1703; first compound 2 µM,0.352
same,relative viability,NCI-H1703; first compound 6.325 µM,0.171
same,relative viability,NCI-H1703; first compound 20 µM,0.123
same,relative viability,HCC-44; first compound 0.2 µM,0.835
same,relative viability,HCC-44; first compound 0.6325 µM,0.838
same,relative viability,HCC-44; first compound 2 µM,0.577
same,relative viability,HCC-44; first compound 6.325 µM,0.498
same,relative viability,HCC-44; first compound 20 µM,0.137
same,relative viability,Calu-6; first compound 0.2 µM,0.971
same,relative viability,Calu-6; first compound 0.6325 µM,1.02
same,relative viability,Calu-6; first compound 2 µM,0.813
same,relative viability,Calu-6; first compound 6.325 µM,0.339
same,relative viability,Calu-6; first compound 20 µM,0.208
same,relative viability,HCC-78; first compound 0.2 µM,0.329
same,relative viability,HCC-78; first compound 0.6325 µM,0.388
same,relative viability,HCC-78; first compound 2 µM,0.362
same,relative viability,HCC-78; first compound 6.325 µM,0.365
same,relative viability,HCC-78; first compound 20 µM,0.359
same,relative viability,NCI-H1563; first compound 0.2 µM,0.95
same,relative viability,NCI-H1563; first compound 0.6325 µM,1.04
same,relative viability,NCI-H1563; first compound 2 µM,0.873
same,relative viability,NCI-H1563; first compound 6.325 µM,0.802
same,relative viability,NCI-H1563; first compound 20 µM,0.657
same,relative viability,IA-LM; first compound 0.2 µM,0.829
same,relative viability,IA-LM; first compound 0.6325 µM,0.805
same,relative viability,IA-LM; first compound 2 µM,0.644
same,relative viability,IA-LM; first compound 6.325 µM,0.266
same,relative viability,IA-LM; first compound 20 µM,0.148
same,relative viability,NCI-H2087; first compound 0.2 µM,1.17
same,relative viability,NCI-H2087; first compound 0.6325 µM,1.2
same,relative viability,NCI-H2087; first compound 2 µM,1.06
same,relative viability,NCI-H2087; first compound 6.325 µM,0.886
same,relative viability,NCI-H2087; first compound 20 µM,0.706
same,relative viability,NCI-H1299; first compound 0.2 µM,1.01
same,relative viability,NCI-H1299; first compound 0.6325 µM,1.05
same,relative viability,NCI-H1299; first compound 2 µM,1.06
same,relative viability,NCI-H1299; first compound 6.325 µM,1.01
same,relative viability,NCI-H1299; first compound 20 µM,0.87
same,relative viability,EBC-1; first compound 0.2 µM,0.801
same,relative viability,EBC-1; first compound 0.6325 µM,0.862
same,relative viability,EBC-1; first compound 2 µM,0.785
same,relative viability,EBC-1; first compound 6.325 µM,0.531
same,relative viability,EBC-1; first compound 20 µM,0.296
same,relative viability,NCI-H322M; first compound 0.2 µM,0.771
same,relative viability,NCI-H322M; first compound 0.6325 µM,0.737
same,relative viability,NCI-H322M; first compound 2 µM,0.836
same,relative viability,NCI-H322M; first compound 6.325 µM,0.74
same,relative viability,NCI-H322M; first compound 20 µM,0.834

# — the supplement of paper PMC10307832
